Assay results published in patent US8796302B2 (priority 2004, dated 2014).

Experiments:
[1] = tested on: TNFα; assay: TNFα production in neuron-glia cultures of PHOX+/+ and PHOX−/− mice; format: cell-based, mouse; settings: LPS 5 ng/ml
Method: (§1) Neurotoxicity was assessed by DA uptake as described in Example 1. TNFα production was measured by ELISA and iROS was determined by DCFDA as in Example 5. Results are expressed as a percentage of the control culture in FIG. 7A, pg/ml in FIG. 7B, and difference from control in FIG. 7C, respectively, and are the mean±S.E.M. of five individual experiments with triplicates in each experiment. *, P<0.05 compared with LPS culture.
(§2) The rat and mouse ventral mesencephalic neuron-glia cultures were prepared as in Example 1. […] DA neurotoxicity was measured by using the [^3H] DA uptake assay as in Example 1. The data are expressed as the percent of the control cultures and are the mean±SEM. The release of TNFα was measured with a commercially available enzyme-linked immunosorbent assay kit. *P<0.05, **P<0.01, compared to control. The amount of TNFα was measured as in Example 2.

[2] = tested on: TH-IR (dopaminergic) neurons in mesencephalic neuron-glia cultures; assay: TH-IR neuron count and morphology in LPS-treated neuron-glia cultures; format: cell-based, rat; settings: LPS 5 ng/ml; for concentration of peak protection against LPS-induced DA neuron cell loss: 10^−12-10^−16 M tested; for LPS-induced damage of TH immuno-reactive neurons: 10^−14 M
[3] = tested on: superoxide; assay: Superoxide release (SOD-inhibitable cytochrome c reduction) after LPS; format: cell-based, rat; settings: 10^−14 M, enriched-microglia cultures, LPS 10 ng/ml
Method: The release of superoxide was determined by measuring the superoxide dismutase (SOD)-inhibitable reduction of cytochrome c. To measure the immediate release of superoxide from microglia-enriched or neuron-glia after stimulation, cultures grown in 96-well plates were switched to phenol red-free HBSS (50 μl/well). To each well was added 50 μl of HBSS containing vehicle or DM. The cultures were then incubated at about 37° C. for about 30 min followed by 50 μl of ferricytochrome c (100 μM) in HBSS, with and without 600 U/ml SOD, 50 μl of vehicle or LPS in HBSS. The absorbance at 550 nm was read with a SpectraMax Plus microplate spectrophotometer (Molecular Devices, Sunnyvale, Calif.).
(§3) This example tests whether or not post-treatment with DM is still neuroprotective in LPS-induced neurotoxicity. Neuron-glia co-cultures as prepared in Example 1 were first treated with LPS (20 ng/ml) for twelve hours, and then LPS was removed by removing the media from the cultures and washing twice with PBS. Different concentrations of DM (10^−5, 10^−10, and 10^−14 M) were then added to the cultures and incubation was continued for another 6 or 7 days. The DA uptake and the superoxide production were measured as in Example 1 and 5. Results are expressed as a percentage of the control cultures and are the mean±S.E.M of three to six experiments with triplicates in each experiment. ##, P<0.01 compared with control culture; *, P<0.05 compared with the LPS-treated culture.
Primary enriched-microglia cultures were prepared as in Example 1. […] The intracellular ROS concentrations and superoxide amounts were measured as in Example 5. The data are expressed as the percent of the control cultures and are the mean±SEM of three experiments performed in triplicate. *P<0.05, **P<0.01, compared to control.

[4] = tested on: intracellular reactive oxygen species; assay: Intracellular ROS (DCFH oxidation) after LPS; format: cell-based, rat; settings: 10^−14 M, enriched-microglia cultures, LPS 10 ng/ml
Method: The production of intracellular reactive oxygen species was measured by DCFH oxidation. The DCFH-DA (Molecular Probes, Eugene, Oreg.) reagent passively diffuses into cells in which it is hydrolyzed by intracellular esterase to liberate 2′-7′-dichlorofluoressein which, during reaction with oxidizing species, yields a highly fluorescent compound 2′-7′-dichlorofluorescein (DCF) that is trapped inside the cell. For each measurement, a fresh stock solution of CM-H2-DCFDA (5 mM) was prepared in dimethylsulfoxide. CM-H2-DCFDA, diluted to a final concentration of 1 μM in phenol red-free HBSS containing 2% FBS and 2% HS, was added to cultures and incubated for about 30 min at about 37° C. After washing two times with warm HBSS, vehicle or stimulators in HBSS were added to cultures. After incubation for about 30 min at about 37° C., fluorescence intensity was measured at 485 nm for excitation and 530 nm for emission using a SpectraMax Gemini XS fluorescence microplate reader (Molecular Devices).
Assay of intracellular ROS is performed as follows. 5-(and −6)-Chloromethyl-2′,7′-dichlorodihydrofluorescein diacetate (CM-H2-DCFDA) (Molecular Probes, Eugene, Oreg.), a chloromethyl derivative of H2-DCFDA, passively diffuses into cells in which it is hydrolyzed by intracellular esterases to liberate 2′-7′-dichlorofluorescein (DCF) which, during reaction with oxidizing species, yields a highly fluorescent compound that is trapped inside the cell. […] Cells were seeded at 1×10^5/well in 96-well plates for one day followed by treatment with 0.6 mM or 1.2 mM VPA for 24 h. The cultures were used for the assay of intracellular ROS.
After washing two times with warm Hank's balanced salt solution (HBSS), CM-H2-DCFDA, diluted to a final concentration of 1 μM in phenol red-free HBSS, was added to cultures and incubated for 30 min at 37° C. Then cultures were added with 0.6 or 1.2 mM VPA in HBSS again for 30 min and followed the treatment with 100 ng/ml LPS for 2 hours at 37° C., fluorescence intensity was measured at 485 nm for excitation and 530 nm for emission using a SpectraMax Gemini XS fluorescence microplate reader (Molecular Devices, Sunnyvale, Calif.).

[5] = tested on: dopaminergic neurons in rat primary mesencephalic neuron-glia cultures; assay: [3H]DA uptake in LPS-treated mesencephalic neuron-glia cultures; format: cell-based; settings: LPS 5 ng/ml; for concentration of greatest level of protection (DA uptake): 10^−12-10^−16 M tested; for enhancement of [3H]DA uptake after exposure to LPS: 30 min pretreatment, 7 days
Method: Neuron-glia cultures were prepared from the ventral mesencephalic tissues of embryonic day 13-14 Fisher F344 rats or day 12-13 wild-type C57BL/6J (gp91phox^+/+) mice. Dissociated cells were seeded at 1×10^5/well and 5×10^5/well to poly-D-lysine-coated 96-well and 24-well plates, respectively. Cells were maintained at about 37° C. in a humidified atmosphere of 5% CO2 and 95% air, in minimal essential medium (MEM) containing 10% fetal bovine serum (FBS), 10% horse serum (HS), 1 gm/l glucose, 2 mM L-glutamine, 1 mM sodium pyruvate, 100 μM nonessential amino acids, 50 U/ml penicillin, and 50 μg/ml streptomycin. Seven-day-old cultures were used for treatment.
Dextromethorphan (obtained from Sigma-Aldrich (St. Louis, Mo.) as dextromethorphan hydrobromide) was freshly prepared as a stock solution (1 mM) in ddH2O and sterile-filtered right before use. For treatment of the cultures, the DM was serially diluted (10×) with fresh culture medium containing 2% of fetal bovine and horse serum. The neuron-glia cultures were pretreated with 10^−5-10^−17M DM 30 minutes prior to treatment with 10 ng/ml of LPS.
Seven days after treatment, the degeneration of dopaminergic neurons was assessed by [^3H]-dopamine (DA) uptake assays. The [^3H]-DA uptake assays were performed as follows. Cultures were washed twice with warm Krebs-Ringer buffer (KRB, 16 mM sodium phosphate, 119 mM NaCl, 4.7 mM KCl, 1.8 mM CaCl2, 1.2 mM MgSO4, 1.3 mM EDTA, and 5.6 mM glucose; pH7.4) and then incubated for about 20 minutes at about 37° C. with 1 μM [^3H]-DA in KRB in order to allow for the uptake of DA. Afterwards, the cultures were washed (three times) with ice-cold KRB and the cells were collected in 1 N NaOH. Radioactivity was determined by liquid scintillation counting.
as §3, with “5.” for “5. Results are expressed as a percentage of the control cultures and are the mean±S.E.M of three to six experiments with triplicates in each experiment. ##, P<0.01 compared with control culture; *, P<0.05 compared with the LPS-treated culture.”
Neuron-glia cell cultures were prepared as in Example 1, and pretreated with the various peptide fragments of Table 1 (peptide fragments were obtained from BACHEM) for 30 minutes followed by addition of 5 ng/ml of LPS. DA neurotoxicity was measured as an Example 1 at 7 days post treatment.
DA neurotoxicity was measured at 7 days post treatment as in Example 1. Dopaminergic neuronal death was determined at 7 days post treatment using immunocytochemical staining as in Example 2.
Neuron-glia cultures were prepared from the ventral mesencephalic tissues of embryonic day 13-14 rats. Dissociated cells were seeded at 1×10^5/well and 5×10^5/well to poly-D-lysine-coated 96-well and 24-well plates, respectively.

[6] = tested on: dopaminergic neurons in PHOX^+/+ and PHOX^−/− mouse neuron-glia cultures; assay: [3H]DA uptake in neuron-glia cultures of PHOX+/+ and PHOX−/− mice; format: cell-based; settings: PHOX−/− cultures, 10^−13-10^−14 M, LPS 5 ng/ml
Method: To further study the role of ROS in DM-elicited neuroprotection, neuron-glia cultures were prepared from NADPH oxidase-deficient (PHOX^−/−) and wild-type (PHOX^+/+) mice.
as §1, §2

[7] = target: T1, gp91/p22 (Homo sapiens, UniProt P04839); assay: [3H]naloxone binding to COS-7 cells transfected with gp91/p22; settings: COS-7 gp91/p22 cells, [3H]naloxone 2 nM, displaced with 10 μM cold naloxone
T1 construct: expressed in transfected cells; host or cells: COS-7 (stably transfected); intact cells or membrane preparations
Method: Binding affinities of naloxone for COS-7 cells transfected with gp91/p22 was determined using either [^3H]-(+)Naloxone or [^3H]-(−)Naloxone (2 nM; PerkinEhner Life Sciences) as ligands and displaced with 10 μM of cold (−) Naloxone in HBBS containing 0.1% (W/V) fatty acids free albumin (lot B22558, Calbiochem). COS-7 cells transfected with gp91/p22 and COS-7 cells that were not transfected (WT) were detached using Versene (1:5000, GibcoBRL, Life technologies). For intact cell assays, after washing twice with HBSS, cells were transferred to micro centrifuge tubes at 10^6 cells per tube.
To acquire membrane preparations, cells were lysed in buffer ([…] Tris, pH=7.4, 2 mM EDTA, 10 μg/ml CLAP) and homogenized. Lysate was transferred to a 50 ml conical tube, where there were centrifuged at 250 g for about 10 minutes at about 4 C. The supernatant was then transferred to another tube and spun at 100,000 G for about 90 minutes. The supernatant was then discarded and the protein pellet was re-suspended in 2 ml of lysis buffer. […]
All competition reactions of either intact cells or membrane preparations were allowed to proceed at 4° C. […] After washing with HBSS four times, the filters were collected and radioactivity retained on the filters was determined by liquid Scintillation counting. All values are expressed as percentages relative to the binding capacity of the wild type control.

[8] = tested on: dopaminergic neurons in rat primary mesencephalic neuron-glia cultures; assay: [3H]DA uptake in LPS-treated mesencephalic neuron-glia cultures; format: cell-based; settings: femtomolar concentrations, LPS 5 ng/ml
[9] = PHOX−/− mice, 30 min pretreatment
[10] = control (PHOX+/+) mice, 10^−14 M

T1 sequence (P04839 whole entry): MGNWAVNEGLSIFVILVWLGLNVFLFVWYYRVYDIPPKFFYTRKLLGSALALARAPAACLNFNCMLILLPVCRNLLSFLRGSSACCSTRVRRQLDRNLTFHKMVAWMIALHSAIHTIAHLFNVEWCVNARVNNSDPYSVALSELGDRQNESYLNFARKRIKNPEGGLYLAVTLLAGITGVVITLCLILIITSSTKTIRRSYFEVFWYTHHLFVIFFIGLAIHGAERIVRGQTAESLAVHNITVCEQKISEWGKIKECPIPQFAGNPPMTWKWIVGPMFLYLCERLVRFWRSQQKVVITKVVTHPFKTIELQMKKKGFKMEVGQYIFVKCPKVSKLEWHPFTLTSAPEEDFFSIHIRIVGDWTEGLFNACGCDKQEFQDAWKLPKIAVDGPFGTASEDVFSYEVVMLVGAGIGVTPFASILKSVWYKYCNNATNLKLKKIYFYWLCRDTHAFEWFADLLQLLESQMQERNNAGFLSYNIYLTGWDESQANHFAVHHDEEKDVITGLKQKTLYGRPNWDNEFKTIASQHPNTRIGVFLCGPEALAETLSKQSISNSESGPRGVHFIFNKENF
T1 sequence (P13498 whole entry partner): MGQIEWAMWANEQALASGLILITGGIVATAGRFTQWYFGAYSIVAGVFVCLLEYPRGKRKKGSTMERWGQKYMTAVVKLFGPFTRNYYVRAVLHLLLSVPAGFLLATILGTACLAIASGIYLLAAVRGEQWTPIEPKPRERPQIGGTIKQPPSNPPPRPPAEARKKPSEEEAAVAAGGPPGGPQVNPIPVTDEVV

Compound	TNFα reduction in response to LPS [1, 9]	TNFα reduction in response to LPS [1, 10]	concentration of peak protection against LPS-induced DA neuron cell loss [2]	LPS-induced damage of TH immuno-reactive neurons [2]	microglial superoxide response [3]	reduction of intracellular ROS concentrations [4] [%]	concentration of greatest level of protection (DA uptake) [5]	enhancement of [3H]DA uptake after exposure to LPS [5]	neuroprotection (DA uptake) [6]	binding capacity relative to control COS-7 cells [7]	neuroprotection against LPS-induced neurodegeneration [8]
C=CCN1CC[C@]23c4c5ccc(O)c4O[C@H]2C(=O)CC[C@@]3(O)[C@H]1C5 [naloxone, (5α)-4,5-Epoxy-3,14-dihydroxy-17-(2-propenyl)morphinan-6-one]	failed to show any TNFα reduction	showed a reduction of TNFα	10^−14 M	protected TH immuno-reactive neurons from LPS-induced damage	nearly control levels	65	10^−14 M	approximately 35%	failed to show neuroprotection	150-180%	
glycine-glycine-phenylalanine [GGF]	failed to show any TNFα reduction	showed a reduction of TNFα	10^−14 M	protected TH immuno-reactive neurons from LPS-induced damage	nearly control levels	65	10^−14 M	approximately 35%	failed to show neuroprotection		minimal peptide sequence required for neuroprotection
